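How tested: cells in 96-well plates exposed to compound for 48 hours at five concentrations. Here, GI50 denotes the concentration required for 50% inhibition of growth. TGI is the concentration that stops growth completely.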
What was measured:
Assay in all cases: NCI anticancer screen, dose series, 48 h
[1] = tested on: SW-620 colon
[2] = tested on: M14 melanoma
[3] = tested on: SN12C renal
[4] = tested on: A549 NSCLC
[5] = tested on: RXF 393 renal
[6] = tested on: COLO 205 colon
[7] = tested on: HL-60(TB) leukemia
[8] = tested on: HCT-116 colon
[9] = tested on: SK-MEL-5 melanoma
[10] = tested on: MDA-MB-435

Row | SMILES | TGI [1] [µM] | TGI [2] [µM] | TGI [3] [µM] | TGI [4] [µM] | TGI [5] [µM] | TGI [6] [µM] | TGI [7] [µM] | TGI [8] [µM] | TGI [9] [µM] | TGI [10] [µM] | GI50 [1] [µM] | GI50 [10] [µM] | GI50 [3] [µM] | GI50 [4] [µM] | GI50 [5] [µM] | GI50 [6] [µM] | GI50 [7] [µM] | GI50 [9] [µM]
1 | C/C(=N/NC(N)=S)c1ccc2ccccc2c1 | > 100 | 79.1 | > 100 | > 100 | 81.8 | 41.9 | > 100 | 78.4 | > 100 |  |  |  |  |  |  |  |  | 
2 | CCC12C[N+]3([O-])CCc4c([nH]c5ccccc45)C(C(=O)OC)(c4cc5c(cc4OC)N(C)C4C(O)(C(=O)OC)C(OC(C)=O)C6(CC)C=CCN7CCC54C76)CC(C3)C1O2 (stereo not given) | 20.4 | 17.8 | 24.5 | 29.9 | 4.65 | 4.44 |  | 11.6 | 12 |  |  |  |  |  |  |  |  | 
3 | CC(C)(C)N=c1n(C(C)(C)C)oc(=O)n1C(C)(C)C | > 100 | > 100 | > 100 | > 100 | > 100 | > 100 | > 100 | > 100 | > 100 |  |  |  |  |  |  |  |  | 
4 | CCOC(=O)C1=C(C(C)=O)CSC(c2ccccc2)=N1 | > 100 |  | > 100 | > 100 | > 100 | > 100 | > 100 | > 100 | > 100 |  |  |  |  |  |  |  |  | 
5 | CCC[C@H]1C(=O)N=C(N)N1C(=O)OCc1ccccc1 | > 100 |  | > 100 |  | > 100 | > 100 | > 100 | > 100 | > 100 | > 100 |  |  |  |  |  |  |  | 
6 | N#Cc1c(-c2ccccc2)/c(=C\Nc2ccc(Cl)cc2)c(=O)n2c1nc1ccccc12 | > 100 | > 100 | > 100 | > 100 | > 100 | > 100 |  | 19.6 | > 100 | > 100 |  |  |  |  |  |  |  | 
7 | COC(=O)c1c(C)cccc1/C=C1/Cc2c(C)cccc2C1=O | > 100 |  | > 100 | > 100 | > 100 |  | > 100 | > 100 | > 100 | > 100 |  |  |  |  |  |  |  | 
8 | COc1cc(/C=C/C(=O)O)ccc1C(=O)O/C=C/c1ccccc1 | > 100 |  | > 100 | > 100 | > 100 | > 100 | > 100 | > 100 | > 100 |  |  |  |  |  |  |  |  | 
9 | CCOP(=O)(OCC)C1C(CO)OC(n2ccc(=O)[nH]c2=O)C1O (stereo not given) | > 100 | > 100 | > 100 | > 100 | > 100 |  | > 100 | > 100 | > 100 |  |  |  |  |  |  |  |  | 
10 | CC(=O)OC(C)c1cc2c(s1)C(=O)c1sccc1C2=O (stereo not given) | > 100 | 0.389 | 2.26 | 5.29 | 3.27 | 3.59 | > 100 | 2.48 | 0.32 |  |  |  |  |  |  |  |  | 
11 | Oc1ccc(-c2nnc3sc(-c4ccc(F)cc4)nn23)cc1 | > 100 |  | > 100 | > 100 | 38.2 | 34.1 | > 100 |  | > 100 | > 100 | > 100 | > 100 | 42.5 | > 100 | 15.6 | 16.9 | > 100 | 70.4

Reference: PubChem BioAssay (NCI)
